Measured values: ChEMBL document CHEMBL1201862, “PubChem BioAssay data set” (2004)
Calls of active or inactive are those of the source.

Assays:
[1] = Counterscreen for activators of the function of SWI/SNF related, matrix associated, actin dependent regulator of chromatin, subfamily a, member 2 (SMARCA2, BRM): Luminescence-based cell-based high throughput dose response assay to identify non-selective compounds using the VP16 reporter assay.; type: functional
[2] = target: SWI/SNF-related matrix-associated actin-dependent regulator of chromatin subfamily A member 2 (Homo sapiens, UniProt P51531); test: Luminescence-based cell-based high throughput dose response assay to identify activators of the function of SWI/SNF related, matrix associated, actin dependent regulator of chromatin, subfamily a, member 2 (SMARCA2, BRM).; type: functional
HEK293 [3] = test: cells; conditions: Homo sapiens
HEK293 [4] = test: cells; conditions: Homo sapiens; remark: listed apart in the source
Escherichia coli = test: microbe, parasite or virus in culture
[5] = target: Lysine-specific demethylase 4C (Homo sapiens, UniProt Q9H3R0); test: GASC-1 (JMJD2C) histone demethylase inhibitors, dose response, biochemical, DELFIA europium, cherry-picked samples (AID 488835); type: functional
[6] = cytotoxicity in HEK-293T NF-kB-Luc cells, dose response, cytotoxicity control for B/T-cell NF-kB inhibitor project, cell-based, uHTS hits (AID 489019); type: functional;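 also: IC50 reflects cytotoxicity as loss of cell viability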
Jurkat = test: antigen receptor-induced NF-kB inhibitors, dose response, Jurkat, luciferase reporter, luminescence, B- and T-cell (AID 489004); type: functional, cell-based; conditions: Homo sapiens;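 also: NF-kB luciferase reporter Jurkat cells stimulated with PMA plus ionomycin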
cells [7] = type: functional, cell-based
cells [8] = type: functional, cell-based; remark: listed apart in the source
[9] = target: T1, Microphthalmia-associated transcription factor (Homo sapiens, UniProt O75030); test: TRPM1 promoter luciferase signal decrease, dose response, MITF inhibitor project, cell-based, SK-MEL-5, cherry-picked, set 3 (AID 493073); type: functional
T1 sequence (O75030 whole entry): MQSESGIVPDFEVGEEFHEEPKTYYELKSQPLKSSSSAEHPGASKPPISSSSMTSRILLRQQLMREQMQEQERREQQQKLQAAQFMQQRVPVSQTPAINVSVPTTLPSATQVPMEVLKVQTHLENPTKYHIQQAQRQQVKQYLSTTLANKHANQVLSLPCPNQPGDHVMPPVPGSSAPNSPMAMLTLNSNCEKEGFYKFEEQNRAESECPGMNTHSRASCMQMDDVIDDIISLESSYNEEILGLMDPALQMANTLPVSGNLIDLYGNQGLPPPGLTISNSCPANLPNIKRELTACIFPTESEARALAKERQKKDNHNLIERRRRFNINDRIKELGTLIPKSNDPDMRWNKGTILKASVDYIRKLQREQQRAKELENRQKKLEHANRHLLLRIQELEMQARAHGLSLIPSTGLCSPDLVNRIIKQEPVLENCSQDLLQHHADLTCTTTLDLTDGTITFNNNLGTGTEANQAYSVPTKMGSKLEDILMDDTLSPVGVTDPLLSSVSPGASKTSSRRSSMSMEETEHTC

Hexokinase HKDC1 = target: T2, Hexokinase HKDC1 (Homo sapiens, UniProt Q2TB90); test: HKDC1 hexokinase inhibitors, dose response, biochemical, W721R variant (AID 504729); type: functional
T2 sequence (Q2TB90 whole entry): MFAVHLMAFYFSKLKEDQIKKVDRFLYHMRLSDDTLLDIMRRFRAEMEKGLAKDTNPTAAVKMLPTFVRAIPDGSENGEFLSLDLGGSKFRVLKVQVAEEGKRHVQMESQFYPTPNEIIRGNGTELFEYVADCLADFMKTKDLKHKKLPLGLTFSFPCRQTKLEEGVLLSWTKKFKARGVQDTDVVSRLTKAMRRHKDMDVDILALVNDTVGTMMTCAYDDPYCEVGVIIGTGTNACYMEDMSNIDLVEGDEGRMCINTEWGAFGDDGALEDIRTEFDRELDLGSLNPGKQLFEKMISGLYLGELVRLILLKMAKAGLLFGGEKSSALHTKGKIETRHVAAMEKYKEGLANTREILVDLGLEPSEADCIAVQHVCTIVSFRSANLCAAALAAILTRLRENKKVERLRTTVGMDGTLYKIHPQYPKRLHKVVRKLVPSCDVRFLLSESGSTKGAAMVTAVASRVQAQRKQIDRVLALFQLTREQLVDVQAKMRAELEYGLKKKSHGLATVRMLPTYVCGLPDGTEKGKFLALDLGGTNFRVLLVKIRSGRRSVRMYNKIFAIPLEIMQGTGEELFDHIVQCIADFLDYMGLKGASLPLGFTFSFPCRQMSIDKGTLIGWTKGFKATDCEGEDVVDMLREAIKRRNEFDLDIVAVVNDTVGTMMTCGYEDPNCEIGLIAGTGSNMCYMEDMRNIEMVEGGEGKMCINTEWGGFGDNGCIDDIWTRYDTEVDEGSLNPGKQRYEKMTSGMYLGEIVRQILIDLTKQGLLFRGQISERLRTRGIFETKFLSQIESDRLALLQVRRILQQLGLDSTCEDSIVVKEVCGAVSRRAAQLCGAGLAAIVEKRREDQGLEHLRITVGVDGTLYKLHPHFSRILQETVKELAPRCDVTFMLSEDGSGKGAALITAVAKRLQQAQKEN

[10] = target: T3, Replicative DNA helicase DnaB (Mycobacterium tuberculosis, UniProt P9WMR3); test: DnaB intein splicing inhibitors, dose response, biochemical, cell-free fluorescence (AID 449749); type: functional
T3 sequence (P9WMR3 whole entry): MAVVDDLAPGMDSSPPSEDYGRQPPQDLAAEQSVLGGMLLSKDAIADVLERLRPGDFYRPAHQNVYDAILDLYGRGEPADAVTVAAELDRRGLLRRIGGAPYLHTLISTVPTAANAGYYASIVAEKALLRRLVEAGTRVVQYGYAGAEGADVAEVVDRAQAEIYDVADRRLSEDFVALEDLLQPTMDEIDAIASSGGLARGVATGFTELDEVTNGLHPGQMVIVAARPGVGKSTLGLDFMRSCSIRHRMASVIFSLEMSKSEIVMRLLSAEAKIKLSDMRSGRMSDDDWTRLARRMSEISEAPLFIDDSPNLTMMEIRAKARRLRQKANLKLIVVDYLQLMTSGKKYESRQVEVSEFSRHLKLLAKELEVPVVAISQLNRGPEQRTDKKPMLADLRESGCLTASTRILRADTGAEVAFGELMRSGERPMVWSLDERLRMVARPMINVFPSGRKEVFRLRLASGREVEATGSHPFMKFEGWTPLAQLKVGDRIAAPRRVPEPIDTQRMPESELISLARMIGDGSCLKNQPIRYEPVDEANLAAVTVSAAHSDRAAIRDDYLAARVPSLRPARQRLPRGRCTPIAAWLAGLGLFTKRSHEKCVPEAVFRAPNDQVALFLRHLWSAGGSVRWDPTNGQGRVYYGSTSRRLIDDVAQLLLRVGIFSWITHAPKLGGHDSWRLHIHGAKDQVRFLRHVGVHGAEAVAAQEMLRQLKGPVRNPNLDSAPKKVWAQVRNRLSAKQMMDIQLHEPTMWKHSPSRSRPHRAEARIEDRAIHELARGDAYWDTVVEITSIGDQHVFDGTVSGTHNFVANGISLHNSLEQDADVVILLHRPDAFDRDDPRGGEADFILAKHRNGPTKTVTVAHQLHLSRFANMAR

Protein RecA = target: T4, Protein RecA (Mycobacterium tuberculosis, UniProt P9WHJ3); test: Fluorescence Cell-Free Homogeneous Dose Retest to Identify Inhibitors of RecA-Intein Splicing Activity. [Related pubchem assays (depositor defined):AID2097, AID2223, AID489010, AID492950]; type: functional
T4 sequence (P9WHJ3 whole entry): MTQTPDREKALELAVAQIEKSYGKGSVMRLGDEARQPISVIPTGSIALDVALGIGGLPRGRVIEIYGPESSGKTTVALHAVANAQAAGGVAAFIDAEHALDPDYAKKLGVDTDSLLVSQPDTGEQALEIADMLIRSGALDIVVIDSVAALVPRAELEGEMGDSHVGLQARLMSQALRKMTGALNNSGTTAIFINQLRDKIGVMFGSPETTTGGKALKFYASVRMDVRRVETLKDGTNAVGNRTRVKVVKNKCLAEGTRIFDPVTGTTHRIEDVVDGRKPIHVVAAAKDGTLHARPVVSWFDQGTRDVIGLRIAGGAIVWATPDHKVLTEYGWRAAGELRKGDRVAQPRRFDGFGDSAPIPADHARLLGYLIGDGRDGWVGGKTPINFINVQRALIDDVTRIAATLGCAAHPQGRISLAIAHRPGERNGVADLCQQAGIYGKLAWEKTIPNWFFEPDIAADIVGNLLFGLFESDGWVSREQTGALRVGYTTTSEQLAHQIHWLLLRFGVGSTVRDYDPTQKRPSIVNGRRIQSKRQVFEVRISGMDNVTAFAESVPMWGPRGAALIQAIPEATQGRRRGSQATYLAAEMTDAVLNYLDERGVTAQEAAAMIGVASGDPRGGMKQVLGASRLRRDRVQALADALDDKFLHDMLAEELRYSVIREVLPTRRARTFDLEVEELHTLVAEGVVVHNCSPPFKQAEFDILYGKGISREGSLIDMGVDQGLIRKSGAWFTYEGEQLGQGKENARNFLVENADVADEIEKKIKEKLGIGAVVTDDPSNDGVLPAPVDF

[11] = target: T5, Short transient receptor potential channel 4 (Mus musculus, UniProt Q9QUQ5); test: mouse TRPC4 channel inhibitors, dose response, cell-based, HEK293 TRPC4/mu-opioid, Fluo-4 calcium (AID 434942); type: functional;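 also: potency of inhibitors blocking the TRPC4 calcium response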
T5 sequence (Q9QUQ5 whole entry): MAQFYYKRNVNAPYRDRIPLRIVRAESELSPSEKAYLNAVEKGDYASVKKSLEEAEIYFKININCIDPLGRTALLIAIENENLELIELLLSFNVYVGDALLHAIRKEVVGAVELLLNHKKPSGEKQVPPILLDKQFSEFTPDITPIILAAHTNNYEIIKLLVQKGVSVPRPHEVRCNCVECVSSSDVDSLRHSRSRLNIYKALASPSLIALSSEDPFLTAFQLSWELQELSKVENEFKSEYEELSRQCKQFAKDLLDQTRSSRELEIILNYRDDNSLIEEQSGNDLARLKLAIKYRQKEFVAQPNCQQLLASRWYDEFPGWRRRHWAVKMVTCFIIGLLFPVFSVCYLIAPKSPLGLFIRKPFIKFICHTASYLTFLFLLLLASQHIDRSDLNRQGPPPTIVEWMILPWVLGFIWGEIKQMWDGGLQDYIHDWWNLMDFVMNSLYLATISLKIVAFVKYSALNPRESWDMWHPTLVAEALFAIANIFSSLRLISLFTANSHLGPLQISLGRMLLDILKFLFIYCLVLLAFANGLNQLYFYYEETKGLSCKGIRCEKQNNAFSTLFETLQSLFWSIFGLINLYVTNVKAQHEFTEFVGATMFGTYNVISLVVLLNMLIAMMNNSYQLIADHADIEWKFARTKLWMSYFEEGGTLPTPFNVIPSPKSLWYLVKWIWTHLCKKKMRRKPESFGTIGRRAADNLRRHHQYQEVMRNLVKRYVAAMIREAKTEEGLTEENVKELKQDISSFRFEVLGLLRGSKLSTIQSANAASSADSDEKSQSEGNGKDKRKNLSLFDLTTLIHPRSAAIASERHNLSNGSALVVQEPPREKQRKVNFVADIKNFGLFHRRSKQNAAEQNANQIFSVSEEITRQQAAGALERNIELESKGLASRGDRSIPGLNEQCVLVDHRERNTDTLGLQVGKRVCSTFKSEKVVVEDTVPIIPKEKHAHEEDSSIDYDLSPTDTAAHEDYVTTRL

Mu-type opioid receptor = Mu-type opioid receptor (Homo sapiens, UniProt P35372); test: (§1) Counterscreen for agonists of heterodimerization of the mu 1 (OPRM1) and delta 1 (OPRD1) opioid receptors: Luminescence-based cell-based high throughput dose response assay to identify agonists of OPRM1 homodimerization.; type: functional
[12] = target: Delta-type opioid receptor (Homo sapiens, UniProt P41143); test: as §1, with “of OPRD1” for “of OPRM1”, “homodimerization. [Related pubchem assays (depositor defined):AID504326, AID504355, AID504692, AID504904, AID504905]” for “homodimerization.”; type: functional
[13] = target: 5-hydroxytryptamine receptor 5A (Homo sapiens, UniProt P47898); test: Counterscreen for agonists of OPRM1-OPRD1 heterodimerization: luminescence-based cell-based high throughput dose response assay to identify agonists of 5-hydroxytryptamine (serotonin) 5A receptor (HTR5A). [Related pubchem assays (depositor defined):AID504326, AID504355, AID504692, AID504904, AID504905]; type: functional
5-hydroxytryptamine receptor 5A, sequence (P47898 whole entry): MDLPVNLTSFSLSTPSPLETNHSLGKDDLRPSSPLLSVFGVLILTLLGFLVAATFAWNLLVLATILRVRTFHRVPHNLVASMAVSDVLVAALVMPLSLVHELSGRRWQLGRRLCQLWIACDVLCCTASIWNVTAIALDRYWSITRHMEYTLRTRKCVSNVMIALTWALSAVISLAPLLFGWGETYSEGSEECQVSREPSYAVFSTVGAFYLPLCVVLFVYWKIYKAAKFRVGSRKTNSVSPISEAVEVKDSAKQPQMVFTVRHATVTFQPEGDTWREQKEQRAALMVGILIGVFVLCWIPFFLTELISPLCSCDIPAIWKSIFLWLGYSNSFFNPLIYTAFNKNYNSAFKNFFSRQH

Lysine-specific demethylase 4C, sequence (Q9H3R0 whole entry): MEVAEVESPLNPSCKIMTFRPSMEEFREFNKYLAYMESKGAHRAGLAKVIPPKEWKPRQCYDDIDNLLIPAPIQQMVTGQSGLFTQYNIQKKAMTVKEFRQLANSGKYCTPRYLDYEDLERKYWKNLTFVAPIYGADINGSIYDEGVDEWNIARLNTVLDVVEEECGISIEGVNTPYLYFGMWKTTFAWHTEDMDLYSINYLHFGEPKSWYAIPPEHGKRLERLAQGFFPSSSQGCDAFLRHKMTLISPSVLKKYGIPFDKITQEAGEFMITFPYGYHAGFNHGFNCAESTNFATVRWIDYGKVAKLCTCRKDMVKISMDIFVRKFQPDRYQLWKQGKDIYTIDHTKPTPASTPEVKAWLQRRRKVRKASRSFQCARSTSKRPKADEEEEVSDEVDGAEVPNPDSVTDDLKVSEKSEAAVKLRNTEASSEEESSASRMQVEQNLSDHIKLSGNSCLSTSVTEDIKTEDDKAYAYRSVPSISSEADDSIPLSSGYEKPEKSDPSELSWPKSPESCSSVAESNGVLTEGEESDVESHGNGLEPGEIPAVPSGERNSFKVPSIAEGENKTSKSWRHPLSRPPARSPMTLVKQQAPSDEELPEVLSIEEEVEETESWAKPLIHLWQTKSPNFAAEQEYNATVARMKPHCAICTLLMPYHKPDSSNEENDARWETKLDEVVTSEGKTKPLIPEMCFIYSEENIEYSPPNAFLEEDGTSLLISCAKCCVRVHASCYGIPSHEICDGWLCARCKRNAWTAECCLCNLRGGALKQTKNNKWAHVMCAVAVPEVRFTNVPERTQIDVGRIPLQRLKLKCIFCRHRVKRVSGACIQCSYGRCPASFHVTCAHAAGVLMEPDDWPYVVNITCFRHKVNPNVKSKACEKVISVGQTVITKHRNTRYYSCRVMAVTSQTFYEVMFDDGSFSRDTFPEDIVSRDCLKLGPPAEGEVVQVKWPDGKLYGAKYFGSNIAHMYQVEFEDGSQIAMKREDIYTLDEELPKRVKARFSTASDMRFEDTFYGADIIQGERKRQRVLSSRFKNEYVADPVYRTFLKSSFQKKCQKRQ
Delta-type opioid receptor, sequence (P41143 whole entry): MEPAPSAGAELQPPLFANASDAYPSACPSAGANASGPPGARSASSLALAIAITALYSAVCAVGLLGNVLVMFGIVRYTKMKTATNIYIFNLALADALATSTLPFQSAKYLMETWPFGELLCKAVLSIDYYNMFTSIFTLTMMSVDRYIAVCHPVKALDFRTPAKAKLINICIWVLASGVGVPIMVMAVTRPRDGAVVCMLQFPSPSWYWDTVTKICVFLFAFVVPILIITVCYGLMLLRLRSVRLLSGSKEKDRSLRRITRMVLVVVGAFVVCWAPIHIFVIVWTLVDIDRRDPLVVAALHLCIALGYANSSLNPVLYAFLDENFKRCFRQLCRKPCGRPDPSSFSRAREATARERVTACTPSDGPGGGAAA
SWI/SNF-related matrix-associated actin-dependent regulator of chromatin subfamily A member 2, sequence (P51531 whole entry): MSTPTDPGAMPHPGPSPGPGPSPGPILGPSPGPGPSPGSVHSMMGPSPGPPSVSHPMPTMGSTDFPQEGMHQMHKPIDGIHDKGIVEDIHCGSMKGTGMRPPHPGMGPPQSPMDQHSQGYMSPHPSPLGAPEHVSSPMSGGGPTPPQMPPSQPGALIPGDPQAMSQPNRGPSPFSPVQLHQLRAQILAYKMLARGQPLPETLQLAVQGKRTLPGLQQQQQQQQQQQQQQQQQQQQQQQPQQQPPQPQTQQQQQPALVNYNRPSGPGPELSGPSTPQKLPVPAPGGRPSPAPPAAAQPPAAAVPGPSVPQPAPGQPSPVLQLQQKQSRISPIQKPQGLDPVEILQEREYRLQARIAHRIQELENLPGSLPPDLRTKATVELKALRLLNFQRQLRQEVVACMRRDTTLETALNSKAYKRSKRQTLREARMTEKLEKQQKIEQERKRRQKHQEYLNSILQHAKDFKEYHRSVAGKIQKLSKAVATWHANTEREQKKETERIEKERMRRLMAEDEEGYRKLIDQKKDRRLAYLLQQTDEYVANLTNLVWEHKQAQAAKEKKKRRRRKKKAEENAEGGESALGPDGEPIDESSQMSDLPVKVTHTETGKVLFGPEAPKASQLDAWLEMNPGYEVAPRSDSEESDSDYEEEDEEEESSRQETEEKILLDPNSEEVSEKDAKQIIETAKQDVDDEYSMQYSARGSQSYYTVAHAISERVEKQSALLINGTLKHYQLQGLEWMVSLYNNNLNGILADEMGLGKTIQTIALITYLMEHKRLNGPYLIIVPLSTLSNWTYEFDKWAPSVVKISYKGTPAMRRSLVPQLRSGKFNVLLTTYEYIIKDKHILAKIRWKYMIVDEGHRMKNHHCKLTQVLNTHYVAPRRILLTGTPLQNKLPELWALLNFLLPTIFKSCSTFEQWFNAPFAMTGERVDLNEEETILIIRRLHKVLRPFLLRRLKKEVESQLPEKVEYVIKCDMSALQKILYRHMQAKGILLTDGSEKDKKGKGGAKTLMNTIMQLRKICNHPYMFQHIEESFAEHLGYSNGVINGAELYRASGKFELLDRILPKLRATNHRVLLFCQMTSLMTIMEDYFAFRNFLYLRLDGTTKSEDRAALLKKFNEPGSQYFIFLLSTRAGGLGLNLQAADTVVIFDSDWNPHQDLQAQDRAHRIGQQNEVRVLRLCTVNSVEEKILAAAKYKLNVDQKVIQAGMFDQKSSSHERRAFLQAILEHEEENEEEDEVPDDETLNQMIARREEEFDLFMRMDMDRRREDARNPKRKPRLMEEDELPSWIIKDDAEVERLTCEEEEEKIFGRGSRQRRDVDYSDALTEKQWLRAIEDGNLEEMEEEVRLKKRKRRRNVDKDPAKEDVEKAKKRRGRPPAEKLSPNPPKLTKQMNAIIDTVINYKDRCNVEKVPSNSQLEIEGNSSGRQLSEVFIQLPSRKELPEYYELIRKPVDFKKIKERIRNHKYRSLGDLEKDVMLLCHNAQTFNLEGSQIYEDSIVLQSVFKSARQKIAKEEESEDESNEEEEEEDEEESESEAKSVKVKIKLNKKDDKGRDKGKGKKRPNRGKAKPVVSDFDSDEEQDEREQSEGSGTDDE
Mu-type opioid receptor, sequence (P35372 whole entry): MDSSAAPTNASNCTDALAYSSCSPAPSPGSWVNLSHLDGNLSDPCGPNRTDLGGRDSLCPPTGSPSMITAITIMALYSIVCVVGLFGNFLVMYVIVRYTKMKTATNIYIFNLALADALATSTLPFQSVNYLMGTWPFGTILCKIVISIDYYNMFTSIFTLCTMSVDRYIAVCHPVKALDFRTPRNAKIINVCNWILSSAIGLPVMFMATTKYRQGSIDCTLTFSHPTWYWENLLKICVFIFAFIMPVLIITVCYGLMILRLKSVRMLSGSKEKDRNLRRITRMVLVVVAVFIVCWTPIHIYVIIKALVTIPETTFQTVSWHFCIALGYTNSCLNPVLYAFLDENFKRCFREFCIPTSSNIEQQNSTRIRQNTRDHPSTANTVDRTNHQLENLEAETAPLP

## O=C1C2C3C=CC(C4CC34)C2C(=O)N1/N=C/c1ccc([N+](=O)[O-])o1 (stereo unspecified)
[1]
  EC50: > 91.1 µM (inactive)
[2]
  EC50: > 91.1 µM (inactive)
HEK293 [3]
  EC50: > 59.6 µM (inactive)
HEK293 [4]
  EC50: > 59.6 µM (inactive)

## c1ccc(C2NCc3ccccc3-n3cccc32)cc1 (stereo unspecified)
Escherichia coli
  AC50: > 150 µM (inactive)

## O=C1NC(=O)C(C(CC(=O)c2ccccc2)c2ccccc2)C(=O)N1 (stereo unspecified)
[5]
  AC50: 7.62 µM (active)

## CC(C)Cc1cc(C(C)(C)C)ccc1OC(=S)N(C)C
[6]
  IC50: > 80 µM (inactive)
Jurkat
  IC50: > 80 µM (inactive)

## COc1ccc(-n2c(C)cc(C(=O)CCl)c2C)cc1
Cells [7]
  EC50: > 350 µM (not active)
Cells [8]
  EC50: > 350 µM (not active)
[9]
  AC50: 6.44 µM (active)
Hexokinase HKDC1
  IC50: 27 µM (inactive)
[10]
  AC50: 22.9 µM (active)
HEK293 [3]
  EC50: > 59.7 µM (inactive)
Protein RecA
  EC50: 19 µM (active)
HEK293 [4]
  EC50: > 59.7 µM (inactive)

## CCOC(=O)C1(CCc2ccccc2)CCN(Cc2ccco2)CC1
[11]
  EC50: 1.19 µM (active)
Mu-type opioid receptor
  EC50: > 92.5 µM (inactive)
[12]
  EC50: > 92.5 µM (inactive)
[13]
  EC50: > 92.5 µM (inactive)

## Cc1nn(-c2ccccc2)c(C)c1NC(=O)COC(=O)c1ccc(Cl)c(S(N)(=O)=O)c1
Escherichia coli
  AC50: 28.1 µM (active)
